Reference: the supplement of paper PMC8671470
± gives the standard deviation of the averaged measurements.

Test system: HL-60
Test: cell viability (% survival relative to DMSO control); higher = less cytotoxic
Settings: 72 h
How it was run: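 In 384-well plates, the full library was rescreened in duplicate on HL-60 cells in RPMI 1640 with 10% FBS, at 1–10,000 nM in five tenfold concentrations, for 72 h at 37 °C, 5% CO2. Each run also held DMSO or 100 nM of one of three metabolic inhibitors. Viability was measured by CellTiter-Glo and normalised to DMSO wells and to wells with proteasome inhibitor, present at 10 μM. Any area under the curve comes from four-parameter log-logistic fitting with drc and PharmacoGx.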

[1] = 0.001 µM, co-treatment: AZD3965 100 nM
[2] = 0.001 µM, co-treatment: DMSO vehicle
[3] = 0.001 µM, co-treatment: GSK2194069 100 nM
[4] = 0.001 µM, co-treatment: pictilisib 100 nM
[5] = 0.01 µM, co-treatment: AZD3965 100 nM
[6] = 0.01 µM, co-treatment: DMSO vehicle
[7] = 0.01 µM, co-treatment: GSK2194069 100 nM
[8] = 0.01 µM, co-treatment: pictilisib 100 nM
[9] = 0.1 µM, co-treatment: AZD3965 100 nM
[10] = 0.1 µM, co-treatment: DMSO vehicle
[11] = 0.1 µM, co-treatment: GSK2194069 100 nM
[12] = 0.1 µM, co-treatment: pictilisib 100 nM
[13] = 1 µM, co-treatment: AZD3965 100 nM
[14] = 1 µM, co-treatment: DMSO vehicle
[15] = 1 µM, co-treatment: GSK2194069 100 nM
[16] = 1 µM, co-treatment: pictilisib 100 nM
[17] = 10 µM, co-treatment: AZD3965 100 nM
[18] = 10 µM, co-treatment: DMSO vehicle
[19] = 10 µM, co-treatment: GSK2194069 100 nM
[20] = 10 µM, co-treatment: pictilisib 100 nM

| SMILES | cell viability [1] [%] | cell viability [2] [%] | cell viability [3] [%] | cell viability [4] [%] | cell viability [5] [%] | cell viability [6] [%] | cell viability [7] [%] | cell viability [8] [%] | cell viability [9] [%] | cell viability [10] [%] | cell viability [11] [%] | cell viability [12] [%] | cell viability [13] [%] | cell viability [14] [%] | cell viability [15] [%] | cell viability [16] [%] | cell viability [17] [%] | cell viability [18] [%] | cell viability [19] [%] | cell viability [20] [%] |
| --- | --- | --- | --- | --- | --- | --- | --- | --- | --- | --- | --- | --- | --- | --- | --- | --- | --- | --- | --- | --- |
| Cc1coc2c1C(=O)C(=O)c1c-2ccc2c(C)cccc12 [Tanshinone I] | 100.1 ± 0.2 | 97.288 ± 0.063 | 94.6 ± 6.6 | 97.1 ± 5.6 | 101 ± 1.8 | 103 ± 6.3 | 103.8 ± 0.31 | 104 ± 3.1 | 104 ± 9.7 | 101.8 ± 0.9 | 108 ± 12 | 101 ± 0.32 | 104 ± 1.6 | 103.5 ± 0.31 | 102 ± 4.4 | 103.6 ± 0.57 | 100.3 ± 0.27 | 97.2 ± 5.3 | 101 ± 1.4 | 106 ± 9.7 |
| CCOC(=O)N1c2ccc(C(F)(F)F)cc2[C@@H](N(Cc2cc(C(F)(F)F)cc(C(F)(F)F)c2)C(=O)OC)C[C@H]1CC [Torcetrapib] | 101 ± 1.8 | 104.8 ± 1 | 101 ± 10 | 113 ± 16 | 98.6 ± 2.3 | 99.13 ± 0.66 | 104 ± 15 | 105 ± 22 | 97.5 ± 4 | 98.7 ± 8.2 | 88 ± 9.7 | 83.6 ± 18 | 97.7 ± 6.2 | 103 ± 6.9 | 94.9 ± 7.2 | 100 ± 4.2 | 98.8 ± 5.5 | 100 ± 1.6 | 95.4 ± 16 | 117 ± 21 |
| Oc1cc(Cl)ccc1Oc1ccc(Cl)cc1Cl [Triclosan] | 100 ± 3.6 | 101 ± 2.6 | 102 ± 4.7 | 93.3 ± 13 | 104 ± 5.1 | 98.7 ± 7.6 | 107 ± 9.5 | 120 ± 9.4 | 96.5 ± 1.2 | 99.7 ± 1.2 | 95.3 ± 5.2 | 95.7 ± 12 | 94.9 ± 7.2 | 99.6 ± 1.5 | 105 ± 4.4 | 111 ± 3.4 | 103 ± 3.2 | 111 ± 4 | 99.7 ± 2.5 | 107.6 ± 0.22 |
| COc1cc2c(NC3CCN(C)CC3)nc(N3CCCN(C)CC3)nc2cc1OCCCN(C)C [UNC0224] | 102 ± 2.2 | 104 ± 2.2 | 114 ± 13 | 101 ± 1.9 | 101 ± 5.6 | 103 ± 7.6 | 113 ± 31 | 108 ± 0.28 | 100 ± 1.5 | 102 ± 6.9 | 96.8 ± 5.5 | 102 ± 9.6 | 99.416 ± 0.052 | 101 ± 1.8 | 96.3 ± 3.7 | 103 ± 1.8 | 95.6 ± 0.11 | 93.3 ± 4.4 | 91.9 ± 6.9 | 74.8 ± 9.6 |
| CC(C)C[C@H](NC(=O)[C@@H](O)[C@H](N)Cc1ccccc1)C(=O)O [Ubenimex] | 101 ± 4.3 | 104 ± 3.4 | 102 ± 3.6 | 99.1 ± 1.1 | 101 ± 11 | 103 ± 1.4 | 95.6 ± 11 | 93.2 ± 11 | 99.3 ± 9.9 | 102 ± 3.4 | 107 ± 2 | 104 ± 7.1 | 98.1 ± 2.2 | 97.6 ± 5.8 | 94 ± 4.7 | 79.3 ± 1.4 | 106 ± 2 | 95.3 ± 1.6 | 103 ± 5.7 | 98.8 ± 3.3 |
| O=P(O)(O)C(O)(Cn1ccnc1)P(=O)(O)O [Zoledronic acid] | 102 ± 2.9 | 98.3 ± 11 | 91.7 ± 49 | 81.3 ± 24 | 101 ± 2.4 | 99.8 ± 2.5 | 92.3 ± 6.2 | 98.9 ± 1.2 | 102 ± 2.3 | 101 ± 1.7 | 95.8 ± 4.7 | 100 ± 9.7 | 101 ± 2.5 | 105.3 ± 0.2 | 103 ± 14 | 108 ± 12 | 98 ± 3.6 | 101 ± 5.2 | 80 ± 26 | 98 ± 7.6 |
